Assay results: patent US5703059A, “Disaccharide ligands for selectins” (British Biotech Pharmaceuticals Ltd., priority 1993, dated 1997)
Blank lines part the entries; values can stand above or below the compound they belong to.

Target: T1, E-selectin (Homo sapiens, UniProt P16581)
T1 construct: expressed in transfected cells
T1 sequence (P16581 22-610): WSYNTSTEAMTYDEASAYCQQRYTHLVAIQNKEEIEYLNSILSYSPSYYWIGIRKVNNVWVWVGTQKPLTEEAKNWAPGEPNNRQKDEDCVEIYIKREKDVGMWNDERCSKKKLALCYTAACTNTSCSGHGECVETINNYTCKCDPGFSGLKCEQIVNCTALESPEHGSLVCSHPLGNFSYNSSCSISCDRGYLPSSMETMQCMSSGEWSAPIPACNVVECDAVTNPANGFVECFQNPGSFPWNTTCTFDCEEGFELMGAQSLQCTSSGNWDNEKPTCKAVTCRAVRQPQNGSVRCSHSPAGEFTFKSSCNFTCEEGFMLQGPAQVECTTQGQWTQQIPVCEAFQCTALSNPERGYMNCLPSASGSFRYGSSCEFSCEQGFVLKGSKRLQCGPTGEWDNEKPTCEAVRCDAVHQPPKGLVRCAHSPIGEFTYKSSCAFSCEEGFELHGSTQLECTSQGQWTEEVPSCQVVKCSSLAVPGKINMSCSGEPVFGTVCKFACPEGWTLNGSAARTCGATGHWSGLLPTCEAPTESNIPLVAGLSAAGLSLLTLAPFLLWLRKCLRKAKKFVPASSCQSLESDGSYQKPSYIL
Assay: Inhibition of E-selectin mediated adhesion of 3H-thymidine labelled U937 cells to E-selectin expressing CHO cells
Assay type: cell-based
Details: U937 binding to E-selectin expressing CHO cells, 4° C., 1 hour
Procedure: The test compounds were assayed to determine their effectiveness at inhibiting E-selectin mediated adhesion between a leucocytic cell line, U937, which expresses ligands for E-selectin, and a Chinese Hamster Ovary cell line which stably expresses E-selectin. The assay has been validated with a commercial known ligand of the E-selectin, 3'-sialyl-3-fucosyl lactose (3S'3FL).
A 96 well plate was seeded with E-selectin expressing CHO cells which were confluent on the day of the assay.
U937 cells were incubated overnight with ^3 H thymidine. (Incubation conditions: 2×10^5 U937 cells per ml, 0.0751 μCi ^3 H thymidine).
Hanks Balanced salts solution, 25 mM HEPES, 0.1% azide.
The compounds were dissolved in 1 ml of assay medium. For E8, 10% methanol was added to achieve a homogenous solution.
The pH of the compounds was adjusted to approximately pH 7.2.
The ^3 H thymidine count value at each concentration of inhibitor is the average of six replicates. Maximum binding was measured by binding U937 cells to E-Selectin CHO cells in the absence of any test compounds.
Background was measured by U937 binding to untransfected CHO cells.
On the day of assay the 96 well plate was washed 3 times in ice cold assay medium. 50 μl of test sample was added to each well and incubated on ice for 1 hour. Meanwhile the U937 cells were washed 3 times in ice cold assay medium. resuspended at a concentration of 3×10^6 cells per ml and then 50 μl was added to each plate. The plates were kept on ice and allowed to incubate at 4° C. for 1 hour. Then they were washed ×3 and the remaining cells solubilised and the radioactivity in the samples counted.
The U937 cells that were used in the 1D2 control were pre-incubated in the presence of 0.1 mg/ml gammaglobulin before addition to the plate.

- inhibition at 26800 µM (26.8 mM, 10% methanol added): 18.5%
Compound: COC1OC(C)C(O)(CC(=O)CCCOC2(C(=O)O)CC(O)C(NC(C)=O)C(C(O)C(O)CO)O2)C(O)C1O [E8, α-O-Methyl-4R-[{N-acetyl-α2"-neuraminidylsodium carboxylate}5'-oxy-2'-oxo-pent-1'-yl]-L-fucopyranoside]

- inhibition at 17100 µM (17.1 mM): 65%
Compound: COC(=O)C1(OCCCC(=O)CC2(O)C(C)OC(OC)C(O)C2O)CC(O)C(NC(C)=O)C(C(O)C(O)CO)O1 [E7, α-O-Methyl-4R-[{5"N-acetyl-α2"-O-neuraminidylmethyl ester}-5'-oxy-2'-oxo-pent-1'-yl]-L-fucopyranoside]

- inhibition at 30700 µM (30.7 mM): 21%
Compound: COC(=O)C1(OCCCC=CC(O)CC2(O)C(C)OC(OC)C(O)C2O)CC(O)C(NC(C)=O)C(C(O)C(O)CO)O1 [E21, α-O-Methyl-4R-[{N-acetyl-α2"-neuraminidylmethyl}7'-oxy-2'R and S-hydroxy-hept-3'-en-1'-yl]-L-fucopyranoside]

- inhibition at 500 µM (0.5 mM): 54%
Compound: CC(=O)N[C@H]1[C@H]([C@H](O)[C@H](O)CO)O[C@@](O[C@H]2[C@@H](O)[C@@H](CO)O[C@@H](O[C@H]3[C@H](O[C@@H]4O[C@@H](C)[C@@H](O)[C@@H](O)[C@@H]4O)[C@@H](O)C(O)O[C@@H]3CO)[C@@H]2O)(C(=O)O)C[C@@H]1O (stereo partly shown) [3'S3FL, 3'-sialyl-3-fucosyl lactose, reference compound]
